Measured values taken from patent US9907797B2, “Combination therapies for overcoming resistance to mitotic agents during chemotherapy” (EMORY UNIVERSITY, priority 2014, dated 2018).
Peptide text beside a SMILES is read from it. * marks the point of attachment. Cbz = O=C(OCc1ccccc1)*

Experiments:
Format in all cases: cell-based
PARP1-CHFR interaction = target: T1, PARP1-CHFR interaction (Homo sapiens, UniProt Q96EP1); test: Glutathione affinity pull-down of GST tagged PARP1 with CHFR in HEK293 cells; settings: 10 uM, 16 hours
T1 construct: expressed in transfected cells; CHFR endogenous
T1 sequence (Q96EP1 1-664): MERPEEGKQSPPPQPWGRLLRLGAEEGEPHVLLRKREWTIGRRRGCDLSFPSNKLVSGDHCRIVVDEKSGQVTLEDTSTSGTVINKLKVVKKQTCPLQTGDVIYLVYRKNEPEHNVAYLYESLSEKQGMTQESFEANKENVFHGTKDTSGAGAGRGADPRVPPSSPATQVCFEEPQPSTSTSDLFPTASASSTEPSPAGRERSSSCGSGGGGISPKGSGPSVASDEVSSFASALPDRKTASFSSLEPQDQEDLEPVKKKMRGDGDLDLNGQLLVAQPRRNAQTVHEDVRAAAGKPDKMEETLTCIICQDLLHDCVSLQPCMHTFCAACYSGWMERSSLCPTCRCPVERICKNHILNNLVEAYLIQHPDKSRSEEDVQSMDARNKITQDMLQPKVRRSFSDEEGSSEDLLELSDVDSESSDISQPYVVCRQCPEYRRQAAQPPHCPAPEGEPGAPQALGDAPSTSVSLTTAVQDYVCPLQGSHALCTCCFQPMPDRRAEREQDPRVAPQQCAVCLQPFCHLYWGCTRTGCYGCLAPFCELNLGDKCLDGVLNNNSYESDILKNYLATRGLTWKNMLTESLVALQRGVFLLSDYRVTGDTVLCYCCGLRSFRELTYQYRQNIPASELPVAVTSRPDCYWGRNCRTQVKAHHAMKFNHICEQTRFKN
Description: In an attempt to generate possible lead compounds for the pharmacologic inhibition of the CHFR-PARP1 interaction, a high throughput computational screen of 5,256,508 chemical structures in the MCULE database of purchasable compounds using the AutoDockVina algorithm against the published crystal structure of the CHFR-PBZ domain was performed. The 10 most promising ‘hits’ based on Autodock Vina docking scores (<−9.7) were selected for further characterization. Commercially available compounds were tested for their impact on nuclear CHFR levels (FIG. 3A). Several compounds, including ‘A2’, ‘A3’, ‘A4’ and ‘A6’ decreased CHFR levels assayed by western blotting of whole cell extracts. The impact of the above referenced compounds on the PARP1/CHFR interaction were evaluated. HEK293 cells were transfected with GST tagged PARP1 and the interaction with CHFR determined in pull down assays for those 4 compounds. […] In contrast to treatment with ABT-888, ‘A3’ completely disrupted the interaction between GST-tagged PARP-1 and CHFR (FIG. 3B). […] Since it is possible that the co-immunoprecipitation between PARP-1 and CHFR after ‘A3’ treatment was negative due to the fact that CHFR was degraded, the experiment was repeated after transfection with the Ring-domain deleted ΔR-CHFR construct, which maintained both stable CHFR and PARP1 levels even after treatment with ‘A3’. […]

[1] = tested on: A549, EKVX, H596, H522, Hop-62, H460 and H2023; test: Cytotoxicity assays with docetaxel and ABT-888 in seven lung cancer cell lines
Description: Hypothesizing that PARP-inhibition could induce synergistic cytotoxicity in CHFR expressing lung cancer cell lines, cytotoxicity assays were performed in seven lung cancer cell lines (A549, EKVX, H596, H522, Hop-62, H460 and H2023) using docetaxel and the PARP-inhibitor ABT-888 either alone or in combination.

CHFR = test: wt-CHFR and CHFR-PBZ* protein levels in transfected Calu-6 cells
Description: To determine if disruption of the CHFR-PARP1 interaction forces CHFR degradation by auto-ubiquitination and subsequent proteasomal degradation, wild-type and the CHFR-PBZ mutant were expressed in the presence and absence of the proteasome inhibitor MG-132 (FIG. 1H) or after the additional deletion of the RING domain (FIG. 1I) in Calu-6 cells.

Calu-6 NSCLC cells = test: XTT assay with docetaxel in transfected Calu-6 cells; settings: docetaxel 72 hours, Calu-6 with wt-CHFR vs empty vector and CHFR-PBZ*, p<0.05
Description: The effect of Docetaxel after 72 hours was established by XTT assay.
In Hela cells, full length, but not PBZ-mutant CHFR has similar cell cycle effects. To determine the functional relevance of the PBZ domain on taxane resistance in NSCLC CHFR deficient CALU-6 cells were transfected with either with full-length CHFR (pDEST40-wt-CHFR) or PBZ mutant CHFR (pDEST40-CHFR-PBZ*).

A549 cells = test: XTT assays with docetaxel in A549 cells stably transfected with shRNAs
Description: (§1) The functional significance of the interaction between CHFR and PARP1 in antephase checkpoint control and taxane sensitivity was evaluated. HEK293 cells were transfected with a GST-tagged PARP1, synchronized with aphidocholin, and the interaction between GST-tagged PARP1 and CHFR was analyzed at various stages of the cell cycle (FIG. 2A, 2B). […] To determine the effect on taxane sensitivity, XTT assays were performed in A549 cells stably transfected with either shRNAs specifically targeting CHFR or PARP1 or control shRNAs (scrambled or luciferase targeting respectively).

CHFR-PARP1 interaction = test: Interaction between GST-tagged PARP1 and CHFR in synchronized cells; settings: microtubular damage induced with docetaxel, G2/M phase
Description: as §1

## C[C@]1(c2nc3c(C(N)=O)cccc3[nH]2)CCCN1 [ABT-888]
PARP1-CHFR interaction
  interaction between PARP1 and CHFR: nor did it disrupt the interaction between CHFR and PARP-1
[1]; ABT-888 20 uM
  cytostasis, docetaxel combined with ABT-888: did not lead to enhanced cytostasis
[1]; seven lung cancer cell lines, alone or in combination
  synergy of docetaxel and ABT-888, cytotoxicity: Synergy was not observed in any of the cell lines
CHFR; Calu-6 cells, wt-CHFR or CHFR-PBZ*
  CHFR protein levels: did not result in altered CHFR protein levels

## CC(C)C[C@@H](C=O)NC(=O)[C@H](CC(C)C)NC(=O)[C@H](CC(C)C)NC(=O)OCc1ccccc1 [MG-132] (Cbz-Leu-Leu-Leu-aldehyde)
CHFR; Calu-6 cells stably transfected with CHFR-PBZ*, proteasomal inhibition
  CHFR-PBZ* protein levels: increases CHFR-PBZ* protein levels

## CC(=O)O[C@@]12CO[C@@H]1C[C@H](O)[C@@]1(C)C(=O)[C@H](O)C3=C(C)[C@@H](OC(=O)[C@H](O)[C@@H](NC(=O)OC(C)(C)C)c4ccccc4)C[C@@](O)([C@@H](OC(=O)c4ccccc4)[C@H]21)C3(C)C [docetaxel]
Calu-6 NSCLC cells
  taxane resistance (XTT): Stable transfection of wt-CHFR increases taxane resistance
A549 cells; CHFR-deficient A549 cells relative to scrambled control
  sensitivity to docetaxel (XTT): increased sensitivity to docetaxel
A549 cells; PARP1 deficient A549 cells relative to control shRNA
  sensitivity to docetaxel (XTT): also showed increased sensitivity to docetaxel
CHFR-PARP1 interaction
  interaction between GST-tagged PARP1 and CHFR: further enhances this interaction
